Patent USRE49735E1 (BRISTOL-MYERS SQUIBB COMPANY, priority 2010, dated 2023)
“And” between values parts separate entries of the source, which are not always exact repeats. Equal values may be shown once.

What follows are compounds tested against human mGluR5A (Homo sapiens, UniProt P41594) (assay: mGluR5 FLIPR Assay). Details: positive modulator activity; HEK293 (ZF) cells with human mGluR5A and rat GLAST; Ca++ response to ~EC10 glutamate.
Format: cell-based
Protocol: HEK293 (ZF) cells stably transfected with human mGluR5A (pIRES neo) and the rat glutamate-aspartate transporter (GLAST; pIRES puro) are grown in a monolayer culture at 37° C. in 5% CO2 and fed with Minimum Essential Medium (MEM) supplemented with 10% dialysed fetal bovine serum. 24 hours prior to assay, cells are enzymatically dissociated from the culture flask (Trypsin, 0.25%), spun down (1000 rpm, 3 min), resuspended, and plated on Greiner black clear bottomed PDL-coated 384-well plates at a density of 30 thousand cells/well. […] Plates are incubated in dye at 37° C. in 5% CO2 for 60 minutes prior to delivery of test compounds in assay buffer. Test compounds are incubated with cells in the presence of dye for 10 minutes prior to being read on the FLIPR platform (Molecular Devices). A Ca^++ signal is induced in the assay plates via the delivery of an ˜EC10 concentration of the endogenous agonist 1-glutamate; images are acquired at 1 Hz for 100 seconds post-delivery of agonist stimulus. Positive modulator activity (i.e. the ability of test compounds to increase the Ca^++ response to a sub-maximal concentration of agonist) is normalized to a saturating concentration of a known mGluR5 PAM run in each assay plate. An EC50 concentration of test compounds is derived from 4-parameter logistic curve fits of transformed fluoresence data via proprietary software suite.

Chain of human mGluR5A (P41594 21-1180 isoform P41594-2): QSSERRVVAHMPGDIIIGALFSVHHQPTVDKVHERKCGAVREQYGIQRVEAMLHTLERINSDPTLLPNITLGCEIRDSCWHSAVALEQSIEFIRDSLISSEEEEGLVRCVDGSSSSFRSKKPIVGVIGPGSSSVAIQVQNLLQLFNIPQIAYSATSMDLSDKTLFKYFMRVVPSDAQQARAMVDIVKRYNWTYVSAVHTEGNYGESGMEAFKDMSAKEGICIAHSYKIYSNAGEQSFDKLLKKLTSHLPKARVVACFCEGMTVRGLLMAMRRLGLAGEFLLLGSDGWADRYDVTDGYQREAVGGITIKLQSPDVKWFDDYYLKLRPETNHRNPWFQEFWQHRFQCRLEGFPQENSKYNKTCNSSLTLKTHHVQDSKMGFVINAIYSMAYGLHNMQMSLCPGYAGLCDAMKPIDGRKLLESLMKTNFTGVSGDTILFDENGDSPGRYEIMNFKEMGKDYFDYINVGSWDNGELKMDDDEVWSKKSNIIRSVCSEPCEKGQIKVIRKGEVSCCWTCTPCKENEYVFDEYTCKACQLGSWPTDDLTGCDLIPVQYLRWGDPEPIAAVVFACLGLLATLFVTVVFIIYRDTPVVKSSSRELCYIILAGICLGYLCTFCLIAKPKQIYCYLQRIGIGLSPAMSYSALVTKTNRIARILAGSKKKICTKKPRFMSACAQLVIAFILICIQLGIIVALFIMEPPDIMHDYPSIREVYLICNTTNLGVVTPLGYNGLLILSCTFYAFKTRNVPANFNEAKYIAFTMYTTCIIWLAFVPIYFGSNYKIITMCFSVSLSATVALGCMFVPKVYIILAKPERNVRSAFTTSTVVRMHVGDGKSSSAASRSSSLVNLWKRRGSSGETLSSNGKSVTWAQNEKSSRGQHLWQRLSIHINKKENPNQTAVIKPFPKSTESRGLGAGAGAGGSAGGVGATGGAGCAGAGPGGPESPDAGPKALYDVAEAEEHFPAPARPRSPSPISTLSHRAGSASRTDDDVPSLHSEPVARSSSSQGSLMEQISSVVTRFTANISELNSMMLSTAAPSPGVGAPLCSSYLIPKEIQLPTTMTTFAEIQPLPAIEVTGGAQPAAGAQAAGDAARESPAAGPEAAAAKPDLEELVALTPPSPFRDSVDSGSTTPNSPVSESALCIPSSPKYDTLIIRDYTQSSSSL

| EC50 | Structure (SMILES) |
| --- | --- |
| 100 to 1000 nM | O=C1N[C@H](c2cccc(C#Cc3ccccc3)n2)[C@@H](c2c(F)cc(F)cc2F)O1 (single isomer, unassigned) [Example 313] |
| > 1000 nM | O=C1N[C@@H](c2cccc(C#Cc3ccccc3)n2)[C@H](c2c(F)cc(F)cc2F)O1 (single isomer, unassigned) [Example 314] |
| > 1000 nM | O=C1N[C@H](c2cccc(C#Cc3ccccc3)n2)[C@@H](c2cc(F)cc(F)c2)O1 (single isomer, unassigned) [Example 315] |
| > 1000 nM | O=C1N[C@@H](c2cccc(C#Cc3ccccc3)n2)[C@H](c2cc(F)cc(F)c2)O1 (single isomer, unassigned) [Example 316] |
| > 1000 nM | O=C1N[C@@H](c2cncc(C#Cc3ccccc3)c2)[C@H](c2ccncn2)O1 (single isomer, unassigned) [Example 317] |
| < 100 nM | O=C1N[C@H](c2cncc(C#Cc3ccccc3)c2)[C@@H](c2ccncn2)O1 (single isomer, unassigned) [Example 318] |
| > 1000 nM | O=C1N[C@@H](c2cncc(C#Cc3ccccc3)c2)[C@@H](c2ccncn2)O1 (single isomer, unassigned) [Example 319] |
| < 100 nM | O=C1N[C@H](c2cncc(C#Cc3ccccc3)c2)[C@H](c2ccncn2)O1 (single isomer, unassigned) [Example 320] |
| > 1000 nM | O=C1N[C@@H](c2cncc(C#Cc3ccccc3)c2)[C@H](c2ccnnc2)O1 (single isomer, unassigned) [Example 321] |
| < 100 nM | O=C1N[C@H](c2cncc(C#Cc3ccccc3)c2)[C@@H](c2ccnnc2)O1 (single isomer, unassigned) [Example 322] |
| > 1000 nM | O=C1N[C@@H](c2cncc(C#Cc3ccccc3)c2)[C@@H](c2ccnnc2)O1 (single isomer, unassigned) [Example 323] |
| < 100 nM | O=C1N[C@H](c2cncc(C#Cc3ccccc3)c2)[C@H](c2ccnnc2)O1 (single isomer, unassigned) [Example 324] |
| > 1500 nM | O=C1N[C@@H](c2cncc(C#Cc3ccccc3)c2)[C@H](c2cc(Cl)ccc2Cl)O1 (single isomer, unassigned) [Example 325] |
| > 3000 nM | O=C1N[C@H](c2cncc(C#Cc3ccccc3)c2)[C@@H](c2cc(Cl)ccc2Cl)O1 (single isomer, unassigned) [Example 326] |
| > 1000 nM | O=C1N[C@H](c2cncc(C#Cc3ccccc3)c2)[C@H](c2cc(Cl)ccc2Cl)O1 (single isomer, unassigned) [Example 327] |
| > 1000 nM | O=C1N[C@@H](c2cncc(C#Cc3ccccc3)c2)[C@@H](c2cc(Cl)ccc2Cl)O1 (single isomer, unassigned) [Example 328] |
| > 1000 nM | O=C1N[C@@H](c2cncc(C#Cc3ccccc3)c2)[C@H](c2cccc(Cl)c2Cl)O1 (single isomer, unassigned) [Example 329] |
| < 100 nM | O=C1N[C@H](c2cncc(C#Cc3ccccc3)c2)[C@@H](c2cccc(Cl)c2Cl)O1 (single isomer, unassigned) [Example 330] |
| > 1000 nM | O=C1N[C@H](c2cncc(C#Cc3ccccc3)c2)[C@H](c2cccc(Cl)c2Cl)O1 (single isomer, unassigned) [Example 331] |
| > 1000 nM | O=C1N[C@@H](c2cncc(C#Cc3ccccc3)c2)[C@@H](c2cccc(Cl)c2Cl)O1 (single isomer, unassigned) [Example 332] |
| > 1000 nM | COc1ccccc1[C@@H]1OC(=O)N[C@H]1c1cncc(C#Cc2ccccc2)c1 (single isomer, unassigned) [Example 333] |
| > 3000 nM | COc1ccccc1[C@H]1OC(=O)N[C@@H]1c1cncc(C#Cc2ccccc2)c1 (single isomer, unassigned) [Example 334] |
| > 1000 nM | COc1ccccc1[C@@H]1OC(=O)N[C@@H]1c1cncc(C#Cc2ccccc2)c1 (single isomer, unassigned) [Example 335] |
| > 1000 nM | COc1ccccc1[C@H]1OC(=O)N[C@H]1c1cncc(C#Cc2ccccc2)c1 (single isomer, unassigned) [Example 336] |
| > 1000 nM | C[C@@]1(c2cncc(C#Cc3ncccc3F)c2)NC(=O)O[C@H]1c1ccc(F)cc1 (single isomer, unassigned) [Example 343] |
| < 100 nM | C[C@@]1(c2cncc(C#Cc3ncccc3F)c2)NC(=O)O[C@H]1c1ccc(F)cc1 (single isomer, unassigned) [Example 344] |
| > 1000 nM | O=C1N[C@@H](c2cncc(C#Cc3ccccc3)c2)[C@H](c2cccs2)O1 (single isomer, unassigned) [Example 345] |
| < 100 nM and 13.3 nM | O=C1N[C@H](c2cncc(C#Cc3ccccc3)c2)[C@@H](c2cccs2)O1 (single isomer, unassigned) [Example 346] |

| EC50 | Structure (SMILES) |
| --- | --- |
| > 1000 nM | O=C1N[C@H](c2cc(C#Cc3cccc(Cl)c3)ccn2)[C@@H](c2ccc(F)cc2)O1 (single isomer, unassigned) [Example 347] |
| > 1000 nM | O=C1N[C@@H](c2cc(C#Cc3cccc(Cl)c3)ccn2)[C@H](c2ccc(F)cc2)O1 (single isomer, unassigned) [Example 348] |
| 100 to 1000 nM and 305 nM | O=C1N[C@H](c2cc(C#Cc3ccc(Cl)cc3)ccn2)[C@@H](c2ccc(F)cc2)O1 (single isomer, unassigned) [Example 349] |
| 100 to 1000 nM | O=C1N[C@H](c2cc(C#Cc3ccccc3Cl)ccn2)[C@@H](c2ccc(F)cc2)O1 (single isomer, unassigned) [Example 351] |
| > 1000 nM | O=C1N[C@@H](c2cc(C#Cc3ccccc3Cl)ccn2)[C@H](c2ccc(F)cc2)O1 (single isomer, unassigned) [Example 352] |
| < 100 nM | O=C1N[C@H](c2cc(C#Cc3ccccc3F)ccn2)[C@@H](c2ccc(F)cc2)O1 (single isomer, unassigned) [Example 353] |
| 100 to 1000 nM and 392 nM | O=C1N[C@@H](c2cc(C#Cc3ccccc3F)ccn2)[C@H](c2ccc(F)cc2)O1 (single isomer, unassigned) [Example 354] |
| < 100 nM | O=C1N[C@H](c2cc(C#Cc3cccc(F)c3)ccn2)[C@@H](c2ccc(F)cc2)O1 (single isomer, unassigned) [Example 355] |
| 100 to 1000 nM | O=C1N[C@@H](c2cc(C#Cc3cccc(F)c3)ccn2)[C@H](c2ccc(F)cc2)O1 (single isomer, unassigned) [Example 356] |
| < 100 nM | O=C1N[C@H](c2cc(C#Cc3ccc(F)cc3)ccn2)[C@@H](c2ccc(F)cc2)O1 (single isomer, unassigned) [Example 357] |
| > 1000 nM | O=C1N[C@@H](c2cc(C#Cc3ccc(F)cc3)ccn2)[C@H](c2ccc(F)cc2)O1 (single isomer, unassigned) [Example 358] |
| 100 to 1000 nM | O=C1N[C@@H](c2cncc(C#Cc3ccccc3)c2)[C@H](c2ccc(Cl)cc2)O1 (single isomer, unassigned) [Example 359] |
| < 100 nM and 2 nM | O=C1N[C@H](c2cncc(C#Cc3ccccc3)c2)[C@@H](c2ccc(Cl)cc2)O1 (single isomer, unassigned) [Example 360] |
| > 1000 nM | O=C1N[C@@H](c2cncc(C#Cc3ccccc3)c2)[C@H](c2cccc(Cl)c2)O1 (single isomer, unassigned) [Example 361] |
| < 100 nM | O=C1N[C@H](c2cncc(C#Cc3ccccc3)c2)[C@@H](c2cccc(Cl)c2)O1 (single isomer, unassigned) [Example 362] |
| < 100 nM | O=C1N[C@@H](c2cncc(C#Cc3ccccc3)c2)[C@H](c2ccccc2Cl)O1 (single isomer, unassigned) [Example 363] |
| > 1000 nM | O=C1N[C@H](c2cncc(C#Cc3ccccc3)c2)[C@@H](c2ccccc2Cl)O1 (single isomer, unassigned) [Example 364] |
| > 1000 nM | O=C1N[C@@H](c2cccc(C#Cc3ccccc3)n2)[C@H](c2cccnc2)O1 (single isomer, unassigned) [Example 366] |
| > 1000 nM | O=C1N[C@H](c2cccc(C#Cc3ccccc3)n2)[C@@H](c2cccnc2)O1 (single isomer, unassigned) [Example 367] |
| 100 to 1000 nM | O=C1N[C@H](c2cccc(C#Cc3cnccn3)n2)[C@@H](c2ccc(F)cc2)O1 (single isomer, unassigned) [Example 368] |
| > 1000 nM | O=C1N[C@@H](c2cccc(C#Cc3cnccn3)n2)[C@H](c2ccc(F)cc2)O1 (single isomer, unassigned) [Example 369] |
| < 100 nM and 31.8 nM | O=C1N[C@H](c2cccc(C#Cc3ncccc3F)n2)[C@@H](c2ccc(F)cc2)O1 (single isomer, unassigned) [Example 370] |
| > 1000 nM | O=C1NC(c2cccc(C#Cc3ncccc3F)n2)C(c2ccc(F)cc2)O1 (single isomer, unassigned) [Example 371] |
| < 100 nM | O=C1N[C@H](c2cccc(C#Cc3ccnc(F)c3)n2)[C@@H](c2ccc(F)cc2)O1 (single isomer, unassigned) [Example 372] |
| > 1000 nM | O=C1N[C@@H](c2cccc(C#Cc3ccnc(F)c3)n2)[C@H](c2ccc(F)cc2)O1 (single isomer, unassigned) [Example 373] |
| > 1000 nM | O=C1N[C@@H](c2cc(C#Cc3ccccc3)cnc2F)[C@H](c2ccccc2F)O1 (single isomer, unassigned) [Example 374] |
| < 100 nM | O=C1N[C@H](c2cc(C#Cc3ccccc3)cnc2F)[C@@H](c2ccccc2F)O1 (single isomer, unassigned) [Example 375] |
